From the supplement of paper PMC13380429

Tests used:
Details in all cases: 72 h
Caco-2 [1] = assay: cell viability relative to DMSO; higher = less toxic
Calu-3 [2] = assay: as above
HepG2 [3] = assay: as above
U2OS [4] = assay: as above
Vero E6 [5] = assay: as above
Caco-2 [6] = assay: relative viability EC50 (midpoint between 100% and the lowest measured viability); higher = less toxic
Calu-3 [7] = assay: as above
HepG2 [8] = assay: as above
U2OS [9] = assay: as above
Caco-2 [10] = assay: drug sensitivity score (DSS) for viability; higher = more toxic; extreme values may be limits of the assay
Calu-3 [11] = assay: as above
HepG2 [12] = assay: as above
U2OS [13] = assay: as above
Vero E6 [14] = assay: as above
Vero E6 [15] = assay: relative viability EC50 (midpoint between 100% and the lowest measured viability); higher = less toxic

| SMILES | cell viability (Caco-2 [1]; 1 nM) | cell viability (Caco-2 [1]; 10 nM) | cell viability (Caco-2 [1]; 100 nM) | cell viability (Caco-2 [1]; 1000 nM) | cell viability (Caco-2 [1]; 10000 nM) | cell viability (Calu-3 [2]; 1 nM) | cell viability (Calu-3 [2]; 10 nM) | cell viability (Calu-3 [2]; 100 nM) | cell viability (Calu-3 [2]; 1000 nM) | cell viability (Calu-3 [2]; 10000 nM) | cell viability (HepG2 [3]; 1 nM) | cell viability (HepG2 [3]; 10 nM) | cell viability (HepG2 [3]; 100 nM) | cell viability (HepG2 [3]; 1000 nM) | cell viability (HepG2 [3]; 10000 nM) | cell viability (U2OS [4]; 1 nM) | cell viability (U2OS [4]; 10 nM) | cell viability (U2OS [4]; 100 nM) | cell viability (U2OS [4]; 1000 nM) | cell viability (U2OS [4]; 10000 nM) | cell viability (Vero E6 [5]; 1 nM) | cell viability (Vero E6 [5]; 10 nM) | cell viability (Vero E6 [5]; 100 nM) | cell viability (Vero E6 [5]; 1000 nM) | cell viability (Vero E6 [5]; 10000 nM) | relative viability EC50 (Caco-2 [6]) | relative viability EC50 (Calu-3 [7]) | relative viability EC50 (HepG2 [8]) | relative viability EC50 (U2OS [9]) | drug sensitivity score (Caco-2 [10]) | drug sensitivity score (Calu-3 [11]) | drug sensitivity score (HepG2 [12]) | drug sensitivity score (U2OS [13]) | drug sensitivity score (Vero E6 [14]) | relative viability EC50 (Vero E6 [15]) |
| --- | --- | --- | --- | --- | --- | --- | --- | --- | --- | --- | --- | --- | --- | --- | --- | --- | --- | --- | --- | --- | --- | --- | --- | --- | --- | --- | --- | --- | --- | --- | --- | --- | --- | --- | --- |
| C[C@]12CC[C@H](O)CC1=CC[C@@H]1[C@@H]2CC[C@]2(C)C(n3cnc4ccccc43)=CC[C@@H]12 [galeterone] | 95.6% | 102% | 89.1% | 88.3% | 45.9% | 91.9% | 95% | 85.5% | 99.6% | 90.2% | 97.8% | 102% | 97.5% | 99.3% | 77.4% | 96.4% | 102% | 93.4% | 95.1% | 92.9% | 100% | 99% | 102% | 99.2% | 74.5% | 1.72 µM | > 10 µM | > 10 µM | > 10 µM | 4.6 | 0 | 0.9 | 0 | 1.1 |  |
| CC#C[C@@H](CC(=O)O)c1ccc(OCc2cccc(-c3ccc(C(F)(F)F)cc3)c2)cc1 [AMG-837] | 102% | 95.3% | 97.7% | 94.9% | 93.2% | 104% | 104% | 110% | 92.7% | 94.9% |  |  |  |  |  | 101% | 94.7% | 99.9% | 95% | 93.9% | 97.5% | 100% | 95.8% | 102% | 97.4% | > 10 µM | > 10 µM |  | > 10 µM | 0 | 0 |  | 0 | 0 | > 10 µM |
| CN1[C@H]2C[C@H](OC(=O)[C@H](CO)c3ccccc3)C[C@@H]1[C@@H](O)C2 [anisodamine] | 107% | 108% | 101% | 115% | 99.2% | 101% | 103% | 105% | 91.8% | 108% | 104% | 111% | 79.8% | 104% | 102% | 98% | 105% | 98.8% | 101% | 97.6% |  |  |  |  |  | > 10 µM | > 10 µM | > 10 µM | > 10 µM | 0 | 0 | 0 | 0 |  |  |
| Cc1c(Cl)cccc1S(=O)(=O)Nc1nc(CC(=O)N2CCN(C)CC2)cs1 [BVT-2733] | 106% | 92.6% | 100% | 106% | 98.3% | 108% | 102% | 92.5% | 102% | 106% | 104% | 101% | 92.7% | 104% | 97.4% |  |  |  |  |  | 103% | 101% | 107% | 102% | 94.6% | > 10 µM | > 10 µM | > 10 µM |  | 0 | 0 | 0 |  | 0 | > 10 µM |
